Entries after “also recorded” stand apart in the source; their conditions may differ. Ends that are not written are not given here.
Tests used:
PR3 = target: T1, PR3 (Homo sapiens, UniProt P24158); assay: In vitro degradation/digest in the presence of PR3; type: in vitro ADME
T1 sequence (P24158 28-248 limits assumed): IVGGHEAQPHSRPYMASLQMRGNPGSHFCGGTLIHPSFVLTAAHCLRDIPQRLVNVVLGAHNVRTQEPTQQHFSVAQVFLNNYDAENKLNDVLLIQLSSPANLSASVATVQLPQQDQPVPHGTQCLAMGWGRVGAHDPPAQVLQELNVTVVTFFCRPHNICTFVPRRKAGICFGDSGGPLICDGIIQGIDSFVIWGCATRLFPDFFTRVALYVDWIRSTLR
Method: FIG. 8 is a logarithmic plot of the degradation over time of three polypeptides of the present disclosure, UGP022 (SEQ ID NO: 5), UGP025 (SEQ ID NO: 7) and UGP026 (SEQ ID NO: 8) in the presence of PR3, a protease implicated in the in vivo cleavage of Annexin 1.
(§1) In an attempt to improve the potency and increase the half-life of the UGP022 peptide of the present disclosure (SEQ ID NO: 5), a series of in vitro PR3 and FINE digests were conducted. […] This cleavage site is not believed to have been identified in the literature.
(§2) Degradation tests of three polypeptides of the present disclosure, UGP022 (SEQ ID NO:5), UGP025 (SEQ ID NO:7) and UGP026 (SEQ ID NO:8) in the presence of PR3, a protease implicated in the in vivo cleavage of Annexin 1, indicated better stability for polypeptides with Leucine substitution at position 24 relative to a polypeptide lacking that feature. Position 24 corresponds to position 25 of Annexin 1 because all tested polypeptides lack the methionine at position 1 of natural Annexin. A 47-residue polypeptide outperformed an otherwise identical 49-residue polypeptide. Similar results were obtained in degradation tests in the presence of FINE.
(§3) FIG. 8 is a logarithmic plot of the degradation over time of three polypeptides of the present disclosure, UGP022 (SEQ ID NO:5), UGP025 (SEQ ID NO:7) and UGP026 (SEQ ID NO:8) in the presence of PR3, a protease implicated in the in vivo cleavage of Annexin 1. […] Also, a 47-residue polypeptide amidated at its C-terminus outperformed an otherwise identical 49-residue polypeptide amidated at its C-terminus.

FPR2 = target: T2, FPR2 (Homo sapiens, UniProt P25090); assay: Binding affinity to FPR2
T2 sequence (P25090 1-351): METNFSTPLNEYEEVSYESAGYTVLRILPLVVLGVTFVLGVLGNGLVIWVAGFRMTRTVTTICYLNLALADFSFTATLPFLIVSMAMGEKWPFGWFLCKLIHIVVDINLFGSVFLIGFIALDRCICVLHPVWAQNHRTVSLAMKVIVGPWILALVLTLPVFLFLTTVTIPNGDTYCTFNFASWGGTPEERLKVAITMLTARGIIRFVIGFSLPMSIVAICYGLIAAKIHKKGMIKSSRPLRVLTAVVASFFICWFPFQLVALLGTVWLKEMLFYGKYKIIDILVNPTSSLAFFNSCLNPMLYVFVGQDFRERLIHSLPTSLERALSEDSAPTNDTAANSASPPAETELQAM

[1] = test system: PMN interaction to an activated HUVEC monolayer; assay: Flow chamber assay: PMN interaction with activated HUVEC monolayer (capture, rolling, adhesion); type: cell-based, human; conditions: for inhibition of PMN/neutrophil-endothelium interactions in flow chamber: concentration not given
Source text: FIGS. 2A-2C are a series of charts reporting data from flow chamber analysis to determine the inhibitory capability of five polypeptides of the present disclosure (Pep57 (SEQ ID NO:12); Pep59 (SEQ ID NO:13), Pep60 (SEQ ID NO:15), Pep83 (SEQ ID NO:16) and Pep84 (SEQ ID NO:14)) and Ac-ANAX1(2-26)-OH to reduce PMN interaction to an activated HUVEC monolayer.
FIGS. 4A-4C are a series of bar charts reporting percent inhibition provided by three polypeptides (UGP022 (SEQ ID NO:5); UGP025 (SEQ ID NO:7) and UGP026 (SEQ ID NO:8)) of the present disclosure, at different concentrations, on three different parameters (capture—FIG. 4A; rolling—FIG. 4B; and adhesion—FIG. 4C).
FIGS. 2A-2C are a series of charts reporting data from flow chamber analysis to determine the inhibitory capability of five polypeptides (Pep57 (SEQ ID NO: 12); Pep59 (SEQ ID NO: 13), Pep60 (SEQ ID NO: 15), Pep83 (SEQ ID NO: 16) and Pep84 (SEQ ID NO: 14)) of the present disclosure and Ac-ANAX1(2-26)-OH to reduce PMN interaction to an activated HUVEC monolayer. PMNs (5×10^6) were incubated with 10 μM of the various peptides for 10 min at 37° C. The PMNs were then flowed for 8 min at 1 dyne/cm^2, prior to quantifying the degree of PMN interaction with the HUVECs, both as PMN capture (FIG. 2A), adhesion (FIG. 2B) and rolling (FIG. 2C). […] Data are mean±SEM of 3 independent experiments (with distinct PMN and HUVEC preparations); *=P<0.05 vs. CT group, data analyzed using one way ANOVA.
FIGS. 4A-4C make a direct comparison of the activities of UGP022 (SEQ ID NO:5), UGP025 (SEQ ID NO: 7) and UGP026 (SEQ ID NO: 8) in the flow chamber assay, presenting the degree of inhibition on the three parameters under analysis (capture (FIG. 4A); rolling (FIG. 4B) and adhesion (FIG. 4C)).

HNE = target: T3, HNE (Homo sapiens, UniProt P08246); assay: In vitro degradation/digest in the presence of HNE; type: in vitro ADME
T3 sequence (P08246 30-267): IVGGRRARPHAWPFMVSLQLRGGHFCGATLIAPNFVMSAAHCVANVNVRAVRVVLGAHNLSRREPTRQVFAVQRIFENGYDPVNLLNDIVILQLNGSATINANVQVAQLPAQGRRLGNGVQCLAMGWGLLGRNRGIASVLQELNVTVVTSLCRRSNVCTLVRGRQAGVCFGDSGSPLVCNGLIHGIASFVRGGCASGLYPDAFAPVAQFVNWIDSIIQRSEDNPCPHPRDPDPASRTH
Method: FIG. 9 is a logarithmic plot of the degradation over time of three polypeptides of the present disclosure, UGP022 (SEQ ID NO: 5), UGP025 (SEQ ID NO: 7) and UGP026 (SEQ ID NO: 8) in the presence of HNE, a protease implicated in the in vivo cleavage of Annexin 1.
as §1, §2
as §3, with “FIG. 9” for “FIG. 8”, “of […],” for “of PR3,”

## AMVSEFLKQAWFIENEEQEYVQTVKSSKGGPGSAVSPYPTFNPSSDVAA-NH2 [UGP022, ANXA1(2-50)-NH2]
PR3; in vitro digest
  cleavage sites by PR3: Ala 10 (Ala11 relative to Annexin 1) and Val 21 (Val22 relative to Annexin 1); also recorded: Val 24 (Val25 relative to Annexin 1)
FPR2
  binding affinity to FPR2: binding affinity to the FPR2 in the nanomolar range; also recorded: showing the highest affinity
[1]
  inhibition of PMN/neutrophil-endothelium interactions in flow chamber: more potent than either the UGP021 peptide; also recorded: able to reduce the number of human PMNs interacting with an activated endothelium, acting specifically through the FPR2 receptor
[1]; human PMN
  lowest concentration with significant anti-inflammatory effect on human PMN: 1 pM
HNE; in vitro digest
  cleavage sites by HNE: Ala 10 (Ala11 relative to Annexin 1) and Val 21 (Val22 relative to Annexin 1); also recorded: Val 35 (Val36 relative to Annexin 1) was only cleaved by FINE; also recorded: Val 24 (Val25 relative to Annexin 1)

## AMVSEFLKQAWFIENEEQEYVQTLKSSKGGPGSAVSPYPTFNPSSDVAA-NH2 [UGP026, Leu25-ANXA1(2-50)-NH2]
PR3
  stability / resistance to PR3 degradation: more resistant to PR3 and FINE than the UGP022 peptide
FPR2
  affinity to FPR2 over FPR1: retain a higher affinity to FPR2 over FPR1
[1]
  inhibition of PMN/neutrophil-endothelium interactions in flow chamber: able to reduce the number of human PMNs interacting with an activated endothelium, acting specifically through the FPR2 receptor
HNE
  stability / resistance to HNE degradation: more resistant to PR3 and FINE than the UGP022 peptide

## AMVSEFLKQAWFIENEEQEYVQTLKSSKGGPGSAVSPYPTFNPSSDV-NH2 [UGP025, Leu25-ANXA1(2-48)-NH2]
PR3
  stability / resistance to PR3 degradation: more resistant to PR3 and FINE than the UGP022 peptide
FPR2
  affinity to FPR2 over FPR1: retain a higher affinity to FPR2 over FPR1
  binding affinity to FPR2: seems to have a higher affinity to FPR2 than does UGP026
[1]; 100 fM
  activity in flow chamber assay at 100 fM: slightly more active at the 100 fM concentration when compared to the UGP022 peptide
[1]
  inhibition of PMN/neutrophil-endothelium interactions in flow chamber: able to reduce the number of human PMNs interacting with an activated endothelium, acting specifically through the FPR2 receptor
[1]; higher concentrations
  activity in flow chamber assay at the higher concentrations tested: less active at the higher concentrations tested
HNE
  stability / resistance to HNE degradation: more resistant to PR3 and FINE than the UGP022 peptide
